{"source": "patent US20140227173A1", "about": "“CANCER TREATMENT WITH GAMMA-SECRETASE INHIBITORS” (The Johns Hopkins University, priority 2006, published 2014)", "key": {"[1]": {"system": "Panc-1 pancreatic cancer cell line", "test": "Tumorigenicity of pre-treated cells injected subcutaneously in athymic mice", "type": "in vivo", "details": "five weeks post-injection; no further drug administered; five mice per arm", "procedure": "(§1) (Top) Experimental scheme illustrating pre-treatment of pancreatic cancer cell lines with GSI-18, prior to plating for soft agar assays and subcutaneous injection in athymic mice. Treatment for 24 hours with GSI-18 or vehicle is followed by recovery in full serum for a further 24 hours minus the drug. Equal numbers of viable cells from the control and treated groups are then plated for colony assays in soft agar, or injected in nude mice. Of note, during the in vitro or in vivo assays, no further drug is administered. […] The dosage required for significant inhibition of clonogenicity varies between 2 μM (Capan-1) to 5 μM (E3LZ10.7). Bar graphs represent colony counts at two weeks, with mean and standard deviations calculated from triplicate experiments. (Left) Pre-treatment with GSI-18 inhibits tumorigenicity of Panc-1 pancreatic cancer cell line in athymic mice. […] Error bars represent standard deviation of five mice per arm."}, "[2]": {"system": "E3LZ10.7", "test": "Colony formation in soft agar after pre-treatment", "type": "cell-based, human", "procedure": "as §1"}, "[3]": {"system": "GBM neurosphere line HSR-GBM1a", "test": "Growth of GBM neurospheres in vitro (total cell number)", "type": "cell-based", "procedure": "(A, B) CD133 is expressed in GBM neurosphere line HSR-GBM1a. (C) The total cell number was decreased upon GSI-18 treatment for 48 h in this line and in the subclones of the line. […] (E) Protein expression of Hes1, a Notch pathway target gene, was reduced upon GSI-18 treatment in GBM neurosphere cells.\nIt has been shown that the Notch signaling pathway regulates normal stem cells in the Central Neural System (CNS), and that GBMs contain cancer stem cells (CSCs) with higher Notch activity (Cancer Research, 64:7011-21, 2004; Cancer Cell, 9:391-403, 2006). However, it has not been known if Notch pathway blockade could target CSCs in GBM. […] In the present study, we used GBM neurospheres to examine the effects of Notch pathway blockade in GBM. […] Furthermore, overexpression of an active form of Notch2 (NICD2) increases tumor growth in vitro."}, "[4]": {"system": "Akt", "test": "Akt phosphorylation and cleaved Caspase 3 (Western blot) in DAOY medulloblastoma cells", "type": "cell-based", "procedure": "(A) Increase of cleaved Caspase 3 and loss of Akt phosphorylation is induced by 0.4 uMor higher levels of GSI-18, while overall levels of Akt and GAPDH are unchanged in DAOY medulloblastoma cells. (B) Cell death in 2 uM GSI-18 is reduced in a representative subclone of DAOY expressing activated Akt as compare to vector transfected cells. (C) Loss of Akt phosphorylation and activation of Caspase3 cleavage is induced by 2 μM or higher levels of GSI-18, while overall levels of Akt and GAPDH are unchanged in GBM neurosphere cells.\nIt has previously been shown that Akt is a critical effector of Notch-regulated survival and growth outside the brain (26, 27). Therefore, it was examined whether Akt was also a mediator of the pro-survival and pro-growth effects of Notch in brain tumors. GSI-18 blocks the phosphorylation of Akt required for its activation at concentrations as low as 0.4 μM (FIG. 7F). […] Thus the pro-survival effects of Notch signaling in MB appear to be mediated at least in part by Akt.\nQuantitative RT PCR for Notch1, Notch2 and Hes1 was performed as previously described (29), with all reactions normalized to actin (Applied Biosystems, Foster City, Calif.). Commercially available Assay on Demand Taqman primers and probes were used to measure mRNA for Nestin, Bmi1, Tuj1 and GABRA6. Western blots contained 20 μg of protein per lane on a 10% Tris-glycine SDS-PAGE gel (Invitrogen). […]"}, "[5]": {"system": "DAOY", "test": "Clonogenic assay in soft agar", "type": "cell-based", "details": "equal number of viable cells seeded after 48 hours of treatment; 2 μM; vehicle 2.9%", "procedure": "A clonogenic assay was used to determine whether cells capable of initiating anchorage-independent colonies were depleted by GSI-18. In vehicle-treated DAOY cultures, 2.9% of cells formed large colonies when seeded in soft agar (FIG. 7H). This number dropped to 0.26% when an equal number of viable cells were counted and seeded after 48 hours of treatment with GSI-18, and increased to 7.2% in the presence of constitutive Notch2 activation. Initiation of tumor xenografts was assayed next, a strategy used in several previous studies to examine the presence or absence of cancer stem cells (6-8). DAOY and DAOY:NICD2 cultures were treated with either 2 μM GSI-18 or vehicle alone, and the viable cells remaining after 48 hours counted using Trypan blue. […] To rule out the possibility that cells were alive but moribund following gamma-secretase inhibition, the experiment was repeated with cells counted after a recovery period.\nThe DAOY, PFSK, D283 and D425 Med cell lines were obtained from the American Type Culture Collection. […] Cell mass was measured using CellTITER assays according to the manufacturer's instructions (Promega, Madison, Wis.). Cell number and viability were assessed using the Guava PCA and Viacount reagent according to instructions (Guava Technologies, Heyward, Calif.). […] Soft agar assays were performed as previously described, with colonies counted using an automated reader (15)."}}}
{"smiles": "O=S(=O)(NC1C2CCC1Cc1ccccc1C2)c1cccs1", "note": "(stereo not drawn) [GSI-18, [11-endo]-N-(5,6,7,8,9,10-hexahydro-6,9-methanobenzo[α][8]annulen-11-yl)-thiophene-2-sulfonamide]", "values": [{"measurement": "tumor volumes from pre-treated cells", "setting": "[1]", "value": "minimal tumor volumes"}, {"measurement": "colony formation following pre-treatment", "setting": "[2]; 24 hours pre-treatment, 24 hours recovery minus drug, colony counts at two weeks", "value": "Significant inhibition of colony formation"}, {"measurement": "dosage required for significant inhibition of clonogenicity", "setting": "[2]; pre-treatment", "value": 5, "unit": "µM"}, {"measurement": "total cell number", "setting": "[3]; 48 h, HSR-GBM1a and subclones", "value": "decreased"}, {"measurement": "tumor growth in vitro", "setting": "[3]; GBM neurospheres, 2 μM", "value": "inhibits tumor growth in vitro"}, {"measurement": "levels inducing increase of cleaved Caspase 3 and loss of Akt phosphorylation", "setting": "[4]; DAOY medulloblastoma cells", "value": "≥ 0.4", "unit": "µM"}, {"measurement": "concentrations blocking the phosphorylation of Akt", "setting": "[4]; MB cells", "value": "≥ 0.4", "unit": "µM"}, {"measurement": "cells forming large colonies in soft agar", "setting": "[5]", "value": 0.26, "unit": "%"}]}
